Values belong to the molecule of their own block, whether it stands above or below them.
Experiments:
Human 5-HT6 Receptor = Human 5-HT6 Receptor (Homo sapiens, UniProt P50406); test: Binding Assay for Human 5-HT6 Receptor ([3H]LSD radioligand); conditions: [3H]LSD 1.5 nM, human recombinant receptor in HEK293 cells; for % Inhibition at 100 nM: 100 nM test compound; for % Inhibition at 1000 nM: 1000 nM test compound; for % Inhibition at 10 nM: 10 nM test compound
Male Wister rats = test: Object Recognition Task Model; format: in vivo; conditions: rat, 3 mg/kg p.o.; for Exploration time mean ± S.E.M (sec), first value column / Exploration time mean ± S.E.M (sec), second value column: choice trial T2; for Exploration time mean ± S.E.M (sec), first value column: first of two columns (sub-head not printed, presumably familiar object); for Exploration time mean ± S.E.M (sec), second value column: second of two columns (sub-head not printed, presumably novel object); for Inference: object recognition task
Description: The cognition-enhancing properties of compounds of this invention were estimated using a model of animal cognition: the object recognition task model.
Male Wister rats (230-280 grams) obtained from N. I. N. (National Institute of Nutrition, Hyderabad, India) was used as experimental animals. Four animals were housed in each cage. Animals were kept on 20% food deprivation before one day and given water ad libitum throughout the experiment and maintained on a 12 hours light/dark cycle. Also the rats were habituated to individual arenas for 1 hour in the absence of any objects.
One group of 12 rats received vehicle (1 mL/Kg) orally and another set of animals received compound of the formula (I) either orally or i.p., before one hour of the familiar (T1) and choice trial (T2).
The experiment was carried out in a 50×50×50 cm open field made up of acrylic. In the familiarization phase, (T1), the rats were placed individually in the open field for 3 minutes, in which two identical objects (plastic bottles, 12.5 cm height×5.5 cm diameter) covered in yellow masking tape alone (a1 and a2) were positioned in two adjacent corners, 10 cm. from the walls. After 24 hours of the (T1) trial for long-term memory test, the same rats were placed in the same arena as they were placed in T1 trial. Choice phase (T2) rats were allowed to explore the open field for 3 minutes in presence of one familiar object (a3) and one novel object (b) (Amber color glass bottle, 12 cm high and 5 cm in diameter). Familiar objects presented similar textures, colors and sizes. During the T1 and T2 trial, explorations of each object (defined as sniffing, licking, chewing or having moving vibrissae whilst directing the nose towards the object at a distance of less than 1 cm) were recorded separately by stopwatch. Sitting on an object was not regarded as exploratory activity, however, it was rarely observed.
T1 is the total time spent exploring the familiar objects (a1+a2).
T2 is the total time spent exploring the familiar object and novel object (a3+b).
The object recognition test was performed as described by Ennaceur, A., Delacour, J., A new one-trial test for neurobiological studies of memory in rats—Behavioural data, Behay. Brain Res., 1988, 31, 47-59.

[1] = Rodent Pharmacokinetic Study; format: in vivo, Male wistar rats; conditions: Wistar/Male rat; for AUCt / T1/2 / Tmax / Cmax: 50% PEG-400 in water for injection; for Cmax: plasma; for Bioavailability: oral 10 mg/kg versus intravenous
Description: Male wistar rats (230-280 grams) obtained from NIN (National Institute of Nutrition, Hyderabad, India) were used as an experimental animal.
Three to five animals were housed in each cage. Animals were kept fasted over night and maintained on a 12 hours light/dark cycle. […]
At each time point blood was collected by jugular vein. Plasma was stored frozen at −20° C. until analysis. The concentrations of the NCE compound in plasma were determined using LC-MS/MS method.
Schedule time points: Pre dose. 0.25, 0.5, 1, 1.5, 2, 3, 4, 6, 8, 10, 12 and 24 hours after dosing (n=3). The NCE compounds were quantified in plasma by validated LC-MS/MS method using solid phase extraction technique. NCE compounds were quantified in the calibration range of 2-2000 ng/mL in plasma. Study samples were analyzed using calibration samples in the batch and quality control samples spread across the batch.
Pharmacokinetic parameters Cmax, Tmax, AUCt, AUCinf, half life, volume of distribution, clearance, mean residence time and thereby oral bioavailability were calculated by non-compartmental model using software WinNonlin version 5.1.

rats = test: Water Maze (scopolamine induced reversal); format: in vivo; conditions: p.o.
Description: The water maze apparatus consisted of a circular pool (1.8 m diameter, 0.6 m high) constructed in black Perspex (TSE systems, Germany) filled with water (24±2° C.) and positioned underneath a wide-angled video camera to track animal. The 10 cm^2 perspex platform, lying 1 cm below the water surface, was placed in the centre of one of the four imaginary quadrants, which remained constant for all rats. The black Perspex used in the construction of the maze and platform offered no intramaze cues to guide escape behavior. By contrast, the training room offered several strong extramaze visual cues to aid the formation of the spatial map necessary for escape learning. An automated tracking system, [Videomot 2 (5.51), TSE systems, Germany] was employed. This program analyzes video images acquired via a digital camera and an image acquisition boards that determined path length, swim speed and the number of entries and duration of swim time spent in each quadrant of the water maze.

[2] = Rodent Brain Penetration Study; format: in vivo, Male Wister rats; conditions: Wistar/Male rat, Intravenous infusion, 1 mg/kg, brain/plasma
Description: Male Wister rats (230-280 grams) obtained from NIN (National Institute of Nutrition, Hyderabad, India) was used as an experimental animal. Three animals were housed in each cage. Animals were given water and food ad libitum throughout the experiment, and maintained on a 12 hours light/dark cycle.
Brain penetration was determined at steady state in rat. One day prior to dosing day, male wistar rats (225-250 grams) were anesthetized with halothane for surgical placement of jugular and femoral vein catheters. After surgery, the rats were housed in individual rat infusion cage connected with infusion components (Instech Solomon; Plymouth Meeting, Pa. USA) and allowed free access to food and water
NCE compound was dissolved in water and administered at a constant infusion rate (5 mL/kg/hr) over 6-10 hours at a target dose rate of 1.0 mg free base/kg/h. Blood samples were removed during the latter part of the infusion to confirm steady-state blood concentrations, brain and blood was collected and estimated. Animals will be sacrificed to collect the plasma and brain tissue and was homogenized. Plasma and Brain was stored frozen at −20° C. until analysis. The concentrations of the NCE compound in plasma and Brain were determined using LC-MS/MS method.
The NCE compounds were quantified in plasma and brain homogenate by validated LC-MS/MS method using solid phase extraction technique. NCE compounds were quantified in the calibration range of 1-500 ng/mL in plasma and brain homogenate. Study samples were analyzed using calibration samples in the batch and quality control samples spread across the batch. Extents of brain-blood ratio were calculated (Cb/Cp).

Sequence of Human 5-HT6 Receptor (P50406 whole entry): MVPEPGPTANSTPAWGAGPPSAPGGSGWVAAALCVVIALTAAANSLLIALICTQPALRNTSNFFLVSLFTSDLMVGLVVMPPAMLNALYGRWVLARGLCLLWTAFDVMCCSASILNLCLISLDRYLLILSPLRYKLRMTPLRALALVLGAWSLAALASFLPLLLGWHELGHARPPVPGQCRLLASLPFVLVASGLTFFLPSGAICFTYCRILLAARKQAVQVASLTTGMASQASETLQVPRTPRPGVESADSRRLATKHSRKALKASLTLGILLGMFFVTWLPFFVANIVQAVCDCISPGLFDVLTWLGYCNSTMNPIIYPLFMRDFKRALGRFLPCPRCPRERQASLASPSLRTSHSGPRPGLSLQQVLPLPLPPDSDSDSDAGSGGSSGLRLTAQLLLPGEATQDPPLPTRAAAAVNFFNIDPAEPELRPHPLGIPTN

SMILES: Cc1ccc(NS(=O)(=O)c2ccccc2Br)cc1NC1CCN(C)CC1 [Example 15, 2-Bromo-N-[4-Methyl-3-(1-methylpiperidin-4-ylamino)phenyl] benzenesulfonamide]
- % Inhibition at 100 nM (Human 5-HT6 Receptor): 99.44%
- % Inhibition at 1000 nM (Human 5-HT6 Receptor): 104.28%
- Exploration time mean ± S.E.M (sec), first value column (Male Wister rats): 6.89 ± 1.54 s
- Exploration time mean ± S.E.M (sec), second value column (Male Wister rats): 13.26 ± 2.80 s
- Inference (Male Wister rats): Active
- AUCt ([1]; Intravenous, 5 mg/kg): 1231 ± 52 ng·h/mL
- T1/2 ([1]; Intravenous, 5 mg/kg): 3.08 ± 2.11 h
- Tmax ([1]; Intravenous, 5 mg/kg): 0.08 ± 0.0 h
- Cmax ([1]; Intravenous, 5 mg/kg): 727 ± 18 ng/mL
- AUCt ([1]; Oral, 10 mg/kg): 2462 ± 901 ng·h/mL
- T1/2 ([1]; Oral, 10 mg/kg): 3.15 ± 2.99 h
- Tmax ([1]; Oral, 10 mg/kg): 2.33 ± 1.15 h
- Cmax ([1]; Oral, 10 mg/kg): 503 ± 263 ng/mL
- Bioavailability [1]: 99%
- Scopolamine Induced Reversal (rats): ≦3 mg/kg, p.o.
- Steady State Brain Penetration (Cb/Cp) [2]: 0.35 ± 0.08

SMILES: Cc1ccc(NS(=O)(=O)c2ccc(F)cc2)cc1NC1CCN(C)CC1 [Example 17, 4-Fluoro-N-[4-Methyl-3-(1-Methylpiperidin-4-ylamino)phenyl] benzenesulfonamide]
- % Inhibition at 100 nM (Human 5-HT6 Receptor): 64.27%
- % Inhibition at 1000 nM (Human 5-HT6 Receptor): 93.00%

SMILES: CN1CCC(Nc2cccc(NS(=O)(=O)c3ccccc3Br)c2)CC1 [Example 11, 2-Bromo-N-[3-(1-methylpiperidin-4-ylamino)phenyl] benzenesulfonamide]
- % Inhibition at 10 nM (Human 5-HT6 Receptor): 8.56%
- % Inhibition at 100 nM (Human 5-HT6 Receptor): 64.11%
- % Inhibition at 1000 nM (Human 5-HT6 Receptor): 94.73%

SMILES: Cc1ccc(S(=O)(=O)Nc2cccc(NC3CCN(C)CC3)c2)cc1 [Example 14, 4-Methyl-N-[3-(1-methylpiperidin-4-ylamino)phenyl] benzenesulfonamide]
- % Inhibition at 100 nM (Human 5-HT6 Receptor): 45.25%
- % Inhibition at 1000 nM (Human 5-HT6 Receptor): 80.78%

SMILES: CN1CCC(Nc2cc(NS(=O)(=O)c3ccc(F)cc3)ccc2Cl)CC1 [Example 2, 4-Fluoro-N-[4-Chloro-3-(1-methylpiperidin-4-ylamino)phenyl] benzenesulfonamide]
- % Inhibition at 100 nM (Human 5-HT6 Receptor): 69.45%
- % Inhibition at 1000 nM (Human 5-HT6 Receptor): 96.73%

SMILES: COc1ccc(NS(=O)(=O)c2ccc(C)cc2)cc1NC1CCN(C)CC1 [Example 10, 4-Methyl-N-[4-Methoxy-3-(1-methylpiperidin-4-ylamino)phenyl] benzenesulfonamide]
- % Inhibition at 100 nM (Human 5-HT6 Receptor): 88.26%
- % Inhibition at 1000 nM (Human 5-HT6 Receptor): 99.2%

- melting point: 119.2 to 121.3 °C
SMILES: COc1ccc(NS(=O)(=O)c2ccccc2Br)cc1N(C)C1CCN(C)CC1

SMILES: CN1CCC(Nc2cccc(NS(=O)(=O)c3ccc(F)cc3)c2)CC1 [Example 13, 4-Fluoro-N-[3-(1-methylpiperidin-4-ylamino)phenyl] benzenesulfonamide]
- % Inhibition at 100 nM (Human 5-HT6 Receptor): 34.95%
- % Inhibition at 1000 nM (Human 5-HT6 Receptor): 71.2%

SMILES: Cc1ccc(S(=O)(=O)Nc2ccc(C)c(NC3CCN(C)CC3)c2)cc1 [Example 18, 4-Methyl-N-[4-Methyl-3-(1-Methylpiperidin-4-ylamino)phenyl] benzenesulfonamide]
- % Inhibition at 100 nM (Human 5-HT6 Receptor): 63.42%
- % Inhibition at 1000 nM (Human 5-HT6 Receptor): 92.37%

SMILES: CN1CCC(Nc2cc(NS(=O)(=O)c3ccccc3Br)ccc2Cl)CC1 [Example 5, 2-Bromo-N-[4-Chloro-3-(1-methylpiperidin-4-ylamino)phenyl] benzenesulfonamide]
- % Inhibition at 100 nM (Human 5-HT6 Receptor): 93.8%
- % Inhibition at 1000 nM (Human 5-HT6 Receptor): 101.6%

SMILES: Cc1ccc(S(=O)(=O)Nc2ccc(Cl)c(NC3CCN(C)CC3)c2)cc1 [Example 3, 4-Methyl-N-[4-Chloro-3-(1-methylpiperidin-4-ylamino)phenyl] benzenesulfonamide]
- % Inhibition at 100 nM (Human 5-HT6 Receptor): 78.66%
- % Inhibition at 1000 nM (Human 5-HT6 Receptor): 98.42%

SMILES: COc1ccc(NS(=O)(=O)c2ccc(F)cc2)cc1NC1CCN(C)CC1 [Example 6, 4-Fluoro-N-[4-Methoxy-3-(1-methylpiperidin-4-ylamino)phenyl] benzenesulfonamide]
- % Inhibition at 10 nM (Human 5-HT6 Receptor): 20.71%
- % Inhibition at 100 nM (Human 5-HT6 Receptor): 90.83%
- % Inhibition at 1000 nM (Human 5-HT6 Receptor): 99.64%
- Exploration time mean ± S.E.M (sec), first value column (Male Wister rats): 10.02 ± 1.54 s
- Exploration time mean ± S.E.M (sec), second value column (Male Wister rats): 15.27 ± 1.32 s
- Inference (Male Wister rats): Active
- AUCt ([1]; Intravenous, 10 mg/kg): 4314 ± 967 ng·h/mL
- T1/2 ([1]; Intravenous, 10 mg/kg): 2.18 ± 1.29 h
- Tmax ([1]; Intravenous, 10 mg/kg): 0.14 ± 0.10 h
- Cmax ([1]; Intravenous, 10 mg/kg): 2885 ± 401 ng/mL
- AUCt ([1]; Oral, 10 mg/kg): 1421 ± 106 ng·h/mL
- T1/2 ([1]; Oral, 10 mg/kg): 5.35 ± 3.65 h
- Tmax ([1]; Oral, 10 mg/kg): 2.17 ± 1.44 h
- Cmax ([1]; Oral, 10 mg/kg): 372 ± 85 ng/mL
- Bioavailability [1]: 34%
- Scopolamine Induced Reversal (rats): ≦3 mg/kg, p.o.
- Steady State Brain Penetration (Cb/Cp) [2]: 0.05 ± 0.01

SMILES: COc1ccc(NS(=O)(=O)c2ccccc2Br)cc1NC1CCN(C)CC1 [Example 8, 2-Bromo-N-[4-Methoxy-3-(1-methylpiperidin-4-ylamino)phenyl] benzenesulfonamide]
- % Inhibition at 10 nM (Human 5-HT6 Receptor): 71.95%
- % Inhibition at 100 nM (Human 5-HT6 Receptor): 99.38%
- % Inhibition at 1000 nM (Human 5-HT6 Receptor): 100.63%
- Exploration time mean ± S.E.M (sec), first value column (Male Wister rats): 6.72 ± 1.95 s
- Exploration time mean ± S.E.M (sec), second value column (Male Wister rats): 9.58 ± 2.26 s
- Inference (Male Wister rats): Active
- AUCt ([1]; Intravenous, 10 mg/kg): 9919 ± 701 ng·h/mL
- T1/2 ([1]; Intravenous, 10 mg/kg): 2.18 ± 0.54 h
- Tmax ([1]; Intravenous, 10 mg/kg): 0.08 ± 0.0 h
- Cmax ([1]; Intravenous, 10 mg/kg): 2645 ± 154 ng/mL
- AUCt ([1]; Oral, 10 mg/kg): 6222 ± 1025 ng·h/mL
- T1/2 ([1]; Oral, 10 mg/kg): 5.40 ± 2.56 h
- Tmax ([1]; Oral, 10 mg/kg): 1.67 ± 1.15 h
- Cmax ([1]; Oral, 10 mg/kg): 964 ± 110 ng/mL
- Bioavailability [1]: 63%
- Scopolamine Induced Reversal (rats): ≦3 mg/kg, p.o.
- Steady State Brain Penetration (Cb/Cp) [2]: 0.04 ± 0.01

Source: US8404720B2, “Aryl sulfonamide amine compounds and their use as 5-HT6 ligands” (Suven Life Sciences Limited, priority 2008, dated 2013)
